Test results: patent publication US20130143929A1, “FUNGICIDAL IMIDAZOLES” (EI DU PONT DE NEMOURS AND COMPANY, priority 2010, published 2013)
Marks after values point to notes of the source that are not given here.

Tests used:
Assay type in all cases: in vivo
[1] = system: Puccinia recondite f. sp. tritici (the causal agent of wheat leaf rust); assay: Test A: wheat leaf rust, preventive spray on wheat seedlings, visual disease rating; conditions: wheat leaf rust, preventive spray on wheat seedlings
Procedure, shortened: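 This was a preventive test: Puccinia recondite f. sp. tritici inoculum was applied one day after compound spray to run-off. Test suspensions were made in 50/50 acetone/water with 250 ppm surfactant, at 200 ppm (800 g/ha equivalent) or 40 ppm. Visual ratings of % disease control relative to controls were made after 24 h of saturated humidity and 7 growth-chamber days, all at 20° C.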

[2] = system: Septoria tritici (the causal agent of wheat leaf blotch); assay: Test B: wheat leaf blotch, preventive spray on wheat seedlings, visual disease rating; conditions: wheat leaf blotch, preventive spray on wheat seedlings
Procedure, shortened: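 Preventive test: Septoria tritici spores applied one day after run-off spraying of seedlings (200 ppm equals 800 g/ha; some tests 40 ppm). After 48 h at 24 °C saturated atmosphere and 19 days at 20 °C, disease scored visually as % control relative to untreated plants.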

[3] = system: Botrytis cinerea (the causal agent of tomato Botrytis); assay: Test C: tomato Botrytis, preventive spray on tomato seedlings, visual disease rating; conditions: tomato Botrytis, preventive spray on tomato seedlings
Procedure, shortened: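 Preventive test: B. cinerea spore inoculation one day after tomato seedlings were sprayed to run-off with compound suspended in 50/50 acetone–water plus 250 ppm surfactant. Plants held 48 h at 20° C in saturated air, then 3 days at 24° C; visual ratings scored 100 (full control) to 0 versus controls; some entries used 40 ppm.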

[4] = system: Blumeria graminis f. sp. tritici (also known as Erysiphe graminis f. sp. tritici, the causal agent of wheat powdery mildew); assay: Test D: wheat powdery mildew, preventive spray on wheat seedlings, visual disease rating; conditions: wheat powdery mildew, preventive spray on wheat seedlings
Procedure, shortened: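 Preventive test: seedlings sprayed to run-off and inoculated with powdery mildew spores one day later. Suspensions were made in 50/50 acetone/water with 250 ppm Trem 014 surfactant (200 ppm equals 800 g/ha). Visual ratings after 8 days at 20 °C give percent disease control versus controls.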

[5] = no asterisk (standard test suspension concentration, not 40 ppm)
[6] = asterisk: 40 ppm test suspension

Structure (SMILES): Cc1cc(F)ccc1C(O)c1c(Cl)nc(Cl)n1-c1ccc(Cl)cc1Cl (single isomer, unassigned) [compound 84]
- Test A rating (100 = 100% disease control, 0 = no disease control relative to the controls) [1, 5]: 96%
- Test B rating (100 = 100% disease control, 0 = no disease control relative to the controls) [2, 5]: 100%
- Test C rating (100 = 100% disease control, 0 = no disease control relative to the controls) [3, 5]: 0%
- Test D rating (100 = 100% disease control, 0 = no disease control relative to the controls) [4, 5]: 0%

Structure (SMILES): COc1cc(F)c(-n2c(C)nc(Cl)c2C(O)c2ccc(F)cc2C)c(F)c1 (stereo not drawn) [compound 183]
- Test A rating (100 = 100% disease control, 0 = no disease control relative to the controls) [1, 6]: 86* %
- Test B rating (100 = 100% disease control, 0 = no disease control relative to the controls) [2, 6]: 100* %
- Test C rating (100 = 100% disease control, 0 = no disease control relative to the controls) [3, 6]: 8* %
- Test D rating (100 = 100% disease control, 0 = no disease control relative to the controls) [4, 6]: 0* %

Structure (SMILES): OC(c1ccc(F)cc1Cl)c1c(Br)ncn1-c1ccc(F)cc1Cl (racemic) [compound 215]
- Test A rating (100 = 100% disease control, 0 = no disease control relative to the controls) [1, 6]: 92* %
- Test B rating (100 = 100% disease control, 0 = no disease control relative to the controls) [2, 6]: 85* %
- Test C rating (100 = 100% disease control, 0 = no disease control relative to the controls) [3, 6]: 55* %
- Test D rating (100 = 100% disease control, 0 = no disease control relative to the controls) [4, 6]: 0* %

Structure (SMILES): Cc1cc(F)ccc1C(O)c1c(Cl)nc(Cl)n1-c1ccc(F)cc1F (stereo not drawn) [compound 77]
- Test A rating (100 = 100% disease control, 0 = no disease control relative to the controls) [1, 5]: 100%
- Test B rating (100 = 100% disease control, 0 = no disease control relative to the controls) [2, 5]: 100%
- Test C rating (100 = 100% disease control, 0 = no disease control relative to the controls) [3, 5]: 94%
- Test D rating (100 = 100% disease control, 0 = no disease control relative to the controls) [4, 5]: 95%

Structure (SMILES): Cc1cccc(Br)c1-n1c(C)nc(Br)c1C(O)c1ccc(F)cc1Cl (stereo not drawn) [compound 335]
- Test A rating (100 = 100% disease control, 0 = no disease control relative to the controls) [1, 6]: 98* %
- Test B rating (100 = 100% disease control, 0 = no disease control relative to the controls) [2, 6]: 86* %
- Test C rating (100 = 100% disease control, 0 = no disease control relative to the controls) [3, 6]: 35* %
- Test D rating (100 = 100% disease control, 0 = no disease control relative to the controls) [4, 6]: 64* %

Structure (SMILES): COc1ccc(C(O)c2c(Br)nc(C)n2-c2c(F)cc(F)cc2Br)c(F)c1 (stereo not drawn) [compound 348]
- Test A rating (100 = 100% disease control, 0 = no disease control relative to the controls) [1, 6]: 100* %
- Test B rating (100 = 100% disease control, 0 = no disease control relative to the controls) [2, 6]: 100* %
- Test C rating (100 = 100% disease control, 0 = no disease control relative to the controls) [3, 6]: 98* %
- Test D rating (100 = 100% disease control, 0 = no disease control relative to the controls) [4, 6]: 90* %

Structure (SMILES): OC(c1ccc(F)cc1F)c1c(Cl)ncn1-c1c(F)cc(F)cc1Cl (stereo not drawn) [compound 118]
- Test A rating (100 = 100% disease control, 0 = no disease control relative to the controls) [1, 6]: 100* %
- Test B rating (100 = 100% disease control, 0 = no disease control relative to the controls) [2, 6]: 100* %
- Test C rating (100 = 100% disease control, 0 = no disease control relative to the controls) [3, 6]: 91* %
- Test D rating (100 = 100% disease control, 0 = no disease control relative to the controls) [4, 5]: 48%

Structure (SMILES): Cc1nc(Cl)c(C(O)c2ccc(F)cc2F)n1-c1c(F)cccc1F (stereo not drawn) [compound 131]
- Test A rating (100 = 100% disease control, 0 = no disease control relative to the controls) [1, 6]: 100* %
- Test B rating (100 = 100% disease control, 0 = no disease control relative to the controls) [2, 6]: 100* %
- Test C rating (100 = 100% disease control, 0 = no disease control relative to the controls) [3, 6]: 99* %
- Test D rating (100 = 100% disease control, 0 = no disease control relative to the controls) [4, 6]: 99* %

Structure (SMILES): COc1ccc(C(O)c2c(Br)nc(C)n2-c2c(F)cccc2Cl)c(F)c1 (racemic) [compound 275]
- Test A rating (100 = 100% disease control, 0 = no disease control relative to the controls) [1, 6]: 100* %
- Test B rating (100 = 100% disease control, 0 = no disease control relative to the controls) [2, 6]: 100* %
- Test C rating (100 = 100% disease control, 0 = no disease control relative to the controls) [3, 6]: 100* %
- Test D rating (100 = 100% disease control, 0 = no disease control relative to the controls) [4, 6]: 99* %

Structure (SMILES): COc1ccc(C(O)c2c(Br)nc(C)n2-c2c(F)cc(F)cc2Cl)c(F)c1 (stereo not drawn) [compound 347]
- Test A rating (100 = 100% disease control, 0 = no disease control relative to the controls) [1, 6]: 100* %
- Test B rating (100 = 100% disease control, 0 = no disease control relative to the controls) [2, 6]: 100* %
- Test C rating (100 = 100% disease control, 0 = no disease control relative to the controls) [3, 6]: 82* %
- Test D rating (100 = 100% disease control, 0 = no disease control relative to the controls) [4, 6]: 69* %

Structure (SMILES): Cc1cccc(Cl)c1-n1c(C)nc(Br)c1C(O)c1ccc(F)cc1F (stereo not drawn) [compound 317]
- Test A rating (100 = 100% disease control, 0 = no disease control relative to the controls) [1, 6]: 100* %
- Test B rating (100 = 100% disease control, 0 = no disease control relative to the controls) [2, 6]: 89* %
- Test C rating (100 = 100% disease control, 0 = no disease control relative to the controls) [3, 6]: 96* %
- Test D rating (100 = 100% disease control, 0 = no disease control relative to the controls) [4, 6]: 56* %

Structure (SMILES): COc1ccc(C(O)c2cnc(C)n2-c2ccc(F)cc2F)c(Cl)c1 (racemic) [compound 282]
- Test A rating (100 = 100% disease control, 0 = no disease control relative to the controls) [1, 6]: 92* %
- Test B rating (100 = 100% disease control, 0 = no disease control relative to the controls) [2, 6]: 63* %
- Test C rating (100 = 100% disease control, 0 = no disease control relative to the controls) [3, 6]: 0* %
- Test D rating (100 = 100% disease control, 0 = no disease control relative to the controls) [4, 6]: 0* %
